Counter-ions that a name gives are not always drawn. Like-named read-outs stand apart in the source and are kept apart here.
Tests used:
[1] = biological target: human dopamine D2-long (D2) receptor (Homo sapiens (Human), UniProt P14416); assay: Human D2-like receptor competition binding in HEK cells, D2; details: hD2L
Excerpt: (§1) Human dopamine D2-long (D2) and D3 (D3) receptors were expressed in HEK cells. In brief, stably transfected HEK cells expressing the human D2-long and the D3 dopamine receptor were developed using the pIRES bicistronic expression vector (CLONTECH; Palo Alto, Calif.). […] For comparison, human dopamine D4 (D4) receptors were obtained from HEK 293 cells stably transfected with a PCR product of a human cDNA coding for the D4.4 form of the human D4 dopamine receptor.
(§2) The procedures to determine the binding affinities at the human dopamine D2-like receptors, the binding affinities at the serotonin 5HT1A, 5HT2A and 5HT2c receptors and functional mitogenesis assay are known in the art. […] Both of these references are incorporated by reference.

[2] = biological target: human dopamine D3 receptor (Homo sapiens (Human), UniProt P35462); assay: Human D2-like receptor competition binding in HEK cells, D3; details: for D2/D3: ratio of Ki at D2 over Ki at D3
Excerpt: as §1, §2

serotonin 5HT2A receptor = serotonin 5HT2A receptor (Homo sapiens (Human), UniProt P28223); assay: Serotonin receptor binding, 5HT2A; details: ratio of affinities
Excerpt: as §2

serotonin 5HT1A receptor = serotonin 5HT1A receptor (Homo sapiens (Human), UniProt P08908); assay: Serotonin receptor binding, 5HT1A; details: ratio of affinities
Excerpt: (§3) The procedures to determine the binding affinities at the human dopamine D2-like receptors, the binding affinities at the serotonin 5HT1A, 5HT2A and 5HT2c receptors and functional mitogenesis assay are known in the art. See J. Med. Chem. 2005, 48, 839-848. See also, NIDA Research Monograph #178, Proceedings of the College of Drug Dependence, p. 440-466, 1998. Both of these references are incorporated by reference.

[3] = biological target: T1, human dopamine D3 receptors in CHO cells (Homo sapiens (Human), UniProt P35462); assay: D3 stimulation of mitogenesis (agonist assay); type: cell-based; details: CHOp cells; for EC50: read-out: partial agonist activity: EC50, D3 (converted)
Description: (§4) The cells were incubated at 37° C. in α-MEM with 10% FBS, 0.05% penicillin-streptomycin, and 200 μg/mL of G418. After 48 hours, the cells were rinsed twice with serum-free α-MEM and incubated for 24 hours at 37° C. In the functional assay for agonism, the medium was removed and replaced with 90 μl of serum-free α-MEM and 10 μl of test compound in sterile water; in the antagonist assay, the test compound was diluted in sterile water plus 30 nM quinpirole. After another 24-hour incubation at 37° C., 0.25 μCi of [^3H]thymidine was added to each well and the plates were further incubated for 2 hours at 37° C. The cells were then trypsinized, and the plates were filtered and counted as usual in the art. Quinpirole was run on every plate as an internal standard.
as §3

serotonin 5HT2c receptor = serotonin 5HT2c receptor (Homo sapiens (Human), UniProt P28335); assay: Serotonin receptor binding, 5HT2c; details: ratio of affinities, 5HT2c over D3
Excerpt: as §2

[4] = biological target: D2 receptor (human) in CHOp-cells (Homo sapiens (Human), UniProt P14416); assay: D2 inhibition of quinpirole stimulation of mitogenesis (antagonist assay); type: cell-based; details: inhibition of 30 nM quinpirole stimulated mitogenesis, read-out: IC50 ± S.E.M., D2
Description: as §4, §2

[5] = biological target: T1, human dopamine D3 receptors in CHO cells; assay: D3 inhibition of quinpirole stimulation of mitogenesis (antagonist assay); type: cell-based; details: inhibition of 30 nM quinpirole stimulated mitogenesis, CHOp cells; read-out: IC50 ± S.E.M., D3
Description: as §4, §2

[6] = biological target: human D4.4 dopamine receptor (Homo sapiens (Human), UniProt P21917); assay: Human D2-like receptor competition binding in HEK cells, D4; details: for Ki: HEK 293 cells, hD4.4; for D4/D3 Ki ratio: head printed D4/D2, values correspond to D4 Ki over D3 Ki
Excerpt: as §1, §2

[7] = HEK cells, hD3, read-out: D3 Ki
[8] = Table 3, unit inferred, with spread, read-out: D3 binding affinity

Chain of human dopamine D2-long (D2) receptor (P14416 whole entry): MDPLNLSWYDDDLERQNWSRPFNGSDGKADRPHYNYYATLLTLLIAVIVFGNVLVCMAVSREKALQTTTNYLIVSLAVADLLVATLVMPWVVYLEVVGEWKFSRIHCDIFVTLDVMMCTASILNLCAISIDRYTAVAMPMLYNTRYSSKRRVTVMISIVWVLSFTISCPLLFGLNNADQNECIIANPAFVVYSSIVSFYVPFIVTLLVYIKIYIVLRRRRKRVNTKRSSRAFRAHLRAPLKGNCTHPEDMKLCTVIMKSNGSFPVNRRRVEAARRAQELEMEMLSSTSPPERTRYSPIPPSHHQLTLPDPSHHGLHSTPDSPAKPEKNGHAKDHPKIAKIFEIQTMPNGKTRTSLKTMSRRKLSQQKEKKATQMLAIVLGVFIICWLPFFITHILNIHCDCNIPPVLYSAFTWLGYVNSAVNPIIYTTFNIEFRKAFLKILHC
Chain of human D4.4 dopamine receptor (P21917 whole entry): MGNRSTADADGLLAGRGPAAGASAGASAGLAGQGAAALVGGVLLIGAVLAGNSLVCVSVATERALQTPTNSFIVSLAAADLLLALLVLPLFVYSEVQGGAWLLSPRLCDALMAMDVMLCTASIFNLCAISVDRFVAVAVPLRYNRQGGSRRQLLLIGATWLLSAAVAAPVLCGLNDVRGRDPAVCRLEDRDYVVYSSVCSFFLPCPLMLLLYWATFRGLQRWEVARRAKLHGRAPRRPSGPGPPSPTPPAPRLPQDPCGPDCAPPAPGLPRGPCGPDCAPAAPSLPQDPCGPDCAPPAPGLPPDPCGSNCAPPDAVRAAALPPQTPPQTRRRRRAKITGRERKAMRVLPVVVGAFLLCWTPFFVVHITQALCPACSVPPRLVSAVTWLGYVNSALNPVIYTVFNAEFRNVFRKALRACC
T1 sequence (P35462 whole entry): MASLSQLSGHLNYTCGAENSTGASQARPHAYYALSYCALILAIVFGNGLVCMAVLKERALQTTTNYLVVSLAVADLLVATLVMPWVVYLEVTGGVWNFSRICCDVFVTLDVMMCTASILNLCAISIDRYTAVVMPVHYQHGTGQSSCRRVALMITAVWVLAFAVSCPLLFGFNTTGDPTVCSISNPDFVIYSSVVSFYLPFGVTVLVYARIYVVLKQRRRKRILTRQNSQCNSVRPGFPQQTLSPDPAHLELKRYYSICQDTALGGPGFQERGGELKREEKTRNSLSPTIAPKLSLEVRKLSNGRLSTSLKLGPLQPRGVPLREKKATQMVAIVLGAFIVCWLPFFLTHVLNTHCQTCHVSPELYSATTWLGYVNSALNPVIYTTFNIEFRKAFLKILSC
Chain of human dopamine D3 receptor (P35462 whole entry): as above
Chain of D2 receptor (human) in CHOp-cells (P14416 whole entry): as the sequence (P14416 whole entry) above
Chain of serotonin 5HT1A receptor (P08908 whole entry): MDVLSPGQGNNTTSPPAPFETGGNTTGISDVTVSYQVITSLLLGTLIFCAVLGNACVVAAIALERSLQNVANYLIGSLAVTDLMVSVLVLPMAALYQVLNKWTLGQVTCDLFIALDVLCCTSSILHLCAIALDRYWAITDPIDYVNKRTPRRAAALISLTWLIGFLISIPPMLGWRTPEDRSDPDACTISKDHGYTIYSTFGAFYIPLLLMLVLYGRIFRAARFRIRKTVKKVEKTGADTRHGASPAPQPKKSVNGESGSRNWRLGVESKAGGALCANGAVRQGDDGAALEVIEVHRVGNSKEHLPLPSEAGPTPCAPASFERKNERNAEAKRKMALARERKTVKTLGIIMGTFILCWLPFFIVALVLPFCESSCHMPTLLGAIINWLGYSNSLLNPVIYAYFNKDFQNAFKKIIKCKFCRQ
Chain of serotonin 5HT2c receptor (P28335 33-458): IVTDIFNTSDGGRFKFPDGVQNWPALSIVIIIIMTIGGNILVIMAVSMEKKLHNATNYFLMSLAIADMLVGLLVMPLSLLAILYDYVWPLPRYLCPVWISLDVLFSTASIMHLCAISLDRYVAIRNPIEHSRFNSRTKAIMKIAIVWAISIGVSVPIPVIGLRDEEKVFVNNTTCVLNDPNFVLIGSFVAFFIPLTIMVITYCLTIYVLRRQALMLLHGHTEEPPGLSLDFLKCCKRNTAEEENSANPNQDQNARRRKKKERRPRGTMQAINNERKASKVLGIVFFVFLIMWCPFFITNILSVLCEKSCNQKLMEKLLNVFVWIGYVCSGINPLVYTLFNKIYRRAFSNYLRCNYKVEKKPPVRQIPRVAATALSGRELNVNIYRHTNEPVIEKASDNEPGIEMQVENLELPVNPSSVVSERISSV
Chain of serotonin 5HT2A receptor (P28223 whole entry): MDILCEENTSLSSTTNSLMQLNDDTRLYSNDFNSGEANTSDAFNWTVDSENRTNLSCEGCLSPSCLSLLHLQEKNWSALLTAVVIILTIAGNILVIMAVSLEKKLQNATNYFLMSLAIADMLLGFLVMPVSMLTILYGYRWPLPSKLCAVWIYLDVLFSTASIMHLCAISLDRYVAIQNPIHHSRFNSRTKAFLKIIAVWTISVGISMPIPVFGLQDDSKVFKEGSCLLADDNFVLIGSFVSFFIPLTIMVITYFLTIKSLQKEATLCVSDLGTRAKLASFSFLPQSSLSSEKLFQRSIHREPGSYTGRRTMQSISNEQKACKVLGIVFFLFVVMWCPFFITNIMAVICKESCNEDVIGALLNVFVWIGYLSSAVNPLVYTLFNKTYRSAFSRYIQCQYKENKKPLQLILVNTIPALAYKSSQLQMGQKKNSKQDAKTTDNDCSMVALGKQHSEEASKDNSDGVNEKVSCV

Compound	Ki [1] [nM]	Ki [2, 7] [nM]	D2/D3 [2]	further results
COc1ccccc1N1CCN(CCCCNC(=O)c2ccc3c(c2)Cc2ccccc2-3)CC1 (as salt: hydrochloride) [Compound 7, N-(4-(4-(2-Methoxyphenyl)piperazin-1-yl)butyl)-9H-fluorene-2-carboxamide]				melting point: 208 to 210 °C
CC(=O)OC(CCNC(=O)c1ccc(-c2ccccn2)cc1)CN1CCN(c2cccc(Cl)c2Cl)CC1 (stereo not shown) [Compound 20, 1-(4-(2,3-Dichlorophenyl)piperazin-1-yl)-4-(4-(pyridin-2-yl)-benzamido)-butan-2-yl acetate]	134	11.7	11	5HT2A/D3 (serotonin 5HT2A receptor): 7; 5HT1A/D3 (serotonin 5HT1A receptor): 10; Ki [2, 8]: 11.7 ± 1 nM; partial agonist activity: % stimulation, D3 [3]: 47%; EC50 [3]: 3.9 ± 1.4 nM; 5HT2c/D (serotonin 5HT2c receptor): 7
O=C(NCC(O)CCN1CCN(c2cccc(Cl)c2Cl)CC1)c1ccc2c(c1)Cc1ccccc1-2 (stereo not shown) [Compound 22, N-(4-(4-(2,3-Dichlorophenyl)piperazin-1-yl)-2-hydroxybutyl)-9H-fluorene-2-carboxamide]	84	2.5	34	
Cc1cccc(-c2ccc(C(=O)NC/C=C/CN3CCN(c4cccc(Cl)c4Cl)CC3)cc2)n1 (as salt: oxalate) [Compound 10, N-(4-(4-(2,3-Dichloro-phenyl)-piperazin-1-yl)-trans-but-2-enyl)-4-(6-methyl-pyridin-2-yl)-benzamide]				melting point: 125 to 126 °C
O=C(NC/C=C/CN1CCN(c2cccc(Cl)c2Cl)CC1)c1ccc(-c2cccc[n+]2[O-])cc1 (as salt: oxalate) [Compound 12, N-(4-(4-(2,3-Dichloro-phenyl)-piperazin-1-yl)-trans-but-2-enyl)-4-(pyridin-N-oxide-2-yl)-benzamide]				melting point: 153 to 154 °C
O=C(NCCC(O)CN1CCN(c2cccc(Cl)c2Cl)CC1)c1ccc2c(c1)Cc1ccccc1-2 (stereo not shown) (as salt: oxalate) [Compound 17]				melting point: 188 to 190 °C
COc1ccccc1N1CCN(C/C=C/CNC(=O)c2ccc3c(c2)Cc2ccccc2-3)CC1 (as salt: hydrochloride) [Compound 15, N-(4-(4-(2-methoxyphenyl)piperazin-1-yl)-trans-but-2-enyl)-9H-fluorene-2-carboxamide]				melting point: 224 to 226 °C
O=C(NCCC(O)CN1CCN(c2cccc(Cl)c2Cl)CC1)c1cc2cc(F)ccc2o1 (stereo not shown) [Compound 46]	245	1.6	149	
COc1ccccc1N1CCN(C/C=C/CNC(=O)c2ccc(-c3ccccn3)cc2)CC1 (as salt: hydrochloride) [Compound 14, N-(4-(4-(2-Methoxy-phenyl)-piperazin-1-yl)-trans-but-2-enyl)-4-pyridin-2-yl-benzamide]				melting point: 168 to 170 °C
O=C(NCC(O)CCN1CCN(c2cccc(Cl)c2Cl)CC1)c1cc2ccccc2[nH]1 (stereo not shown) [Compound 36]	28.4	0.26	109	
O=C(NC/C=C/CN1CCN(c2cccc(Cl)c2Cl)CC1)c1ccc(-c2cccc(=O)[nH]2)cc1 [Compound 9, N-(4-(4-(2,3-Dichloro-phenyl)-piperazin-1-yl)-trans-but-2-enyl)-4-(6-oxo-1,6-dihydro-pyridin-2-yl)-benzamide]	23.6	0.6		IC50 [4]: 41 ± 8 nM; Ki [2, 8]: 0.6 ± 0.1 nM
COc1ccccc1N1CCN(C/C=C/CNC(=O)c2ccc3c(c2)Cc2ccccc2-3)CC1 [Compound 15, N-(4-(4-(2-methoxyphenyl)piperazin-1-yl)-trans-but-2-enyl)-9H-fluorene-2-carboxamide]	48.4			IC50 [4]: 179 ± 48 nM
O=C(NC/C=C/CN1CCN(c2cccc(Cl)c2Cl)CC1)c1ccc(-c2cccc(=O)[nH]2)cc1 (as salt: oxalate) [Compound 9, N-(4-(4-(2,3-Dichloro-phenyl)-piperazin-1-yl)-trans-but-2-enyl)-4-(6-oxo-1,6-dihydro-pyridin-2-yl)-benzamide]				melting point: 153 to 154 °C
O=C(NCCC(O)CN1CCN(c2cccc(Cl)c2Cl)CC1)c1ccc2c(c1)Cc1ccccc1-2 (stereo not shown) [Compound 17]	319	1.8	177	5HT2A/D3 (serotonin 5HT2A receptor): 303; 5HT1A/D3 (serotonin 5HT1A receptor): 1006; Ki [2, 8]: 1.8 nM; partial agonist activity: % stimulation, D3 [3]: 26%; EC50 [3]: 42 ± 1.3 nM; Ki [6]: 16400 nM; D4/D3 Ki ratio [6]: 9110; 5HT2c/D (serotonin 5HT2c receptor): 1572

Now from value to molecule, other results behind:

Ki [1] [nM]	Ki [2, 7] [nM]	D2/D3 [2]	Compound	further results
174	1	172	COc1ccc2oc(C(=O)NCCC(O)CN3CCN(c4ccccc4OC)CC3)cc2c1 (stereo not shown) [Compound 49]	
1160	49.2	24	O=C(NC/C=C/C[N+]1([O-])CCN(c2cccc(Cl)c2Cl)CC1)c1ccc(-c2ccccn2)cc1 [Compound 13, 4-(2,3-Dichlorophenyl)-1-(4-(4-(pyridin-2-yl)benzamido)-trans-but-2-enyl)-piperazine 1-oxide]	
233	5.4	43	COc1ccccc1N1CCN(CC(O)CCNC(=O)c2cc3ccccc3o2)CC1 (stereo not shown) [Compound 43]	
68.4	1.3	53	COc1ccccc1N1CCN(CCC(O)CNC(=O)c2ccc3c(c2)Cc2ccccc2-3)CC1 (stereo not shown) [Compound 23, N-(4-(4-(2-Methoxyphenyl)piperazin-1-yl)-2-hydroxybutyl)-9H-fluorene-2-carboxamide]	
52.5	0.5	105	COc1ccccc1N1CCN(CCC(O)CNC(=O)c2cc3ccccc3[nH]2)CC1 (stereo not shown) [Compound 37]	
337	4.6	73	COc1ccccc1N1CCN(CC(O)CCNC(=O)c2cc3ccccc3s2)CC1 (stereo not shown) [Compound 39]	
697	3.5	200	O=C(NCCC(O)CN1CCN(c2cccc(Cl)c2Cl)CC1)c1cc2cc(I)ccc2o1 (stereo not shown) [Compound 45]	
	2.9		COc1ccccc1N1CCN(C/C=C/CNC(=O)c2ccc(-c3ccccn3)cc2)CC1 [Compound 14, N-(4-(4-(2-Methoxy-phenyl)-piperazin-1-yl)-trans-but-2-enyl)-4-pyridin-2-yl-benzamide]	IC50 [5]: 42.6 ± 7.9 nM; Ki [2, 8]: 2.9 ± 1.1 nM
180	0.65	276	COc1ccccc1N1CCN(CC(O)CCNC(=O)c2cc3cc(F)ccc3o2)CC1 (stereo not shown) [Compound 47]	
249	1.37	181	COc1ccccc1N1CCN(CC(O)CCNC(=O)c2cc3ccccc3[nH]2)CC1 (stereo not shown) [Compound 35]	Ki [6]: 1920 nM; D4/D3 Ki ratio [6]: 1401
47.1	62.1	1	CCCOc1ccccc1N1CCN(CC(O)CCNC(=O)c2cc3ccccc3[nH]2)CC1 (stereo not shown) [Compound 38]	
244	1.3	185	COc1ccc2oc(C(=O)NCCC(O)CN3CCN(c4cccc(Cl)c4Cl)CC3)cc2c1 (stereo not shown) [Compound 48]	
158	2.2	71	COc1ccccc1N1CCN(CC(O)CCNC(=O)c2cc3cc(I)ccc3o2)CC1 (stereo not shown) [Compound 44]	
185	0.98	188	O=C(NCCC(O)CN1CCN(c2cccc(Cl)c2Cl)CC1)c1cc2ccccc2o1 (stereo not shown) [Compound 42]	
249	1.8	138	COc1ccccc1N1CCN(CC(O)CCNC(=O)c2ccc3c(c2)Cc2ccccc2-3)CC1 (stereo not shown) [Compound 19, N-(3-Hydroxy-4-(4-(2-methoxyphenyl)piperazin-1-yl)-butyl)-9H-fluorene-2-carboxamide]	Ki [6]: 1230 nM; D4/D3 Ki ratio [6]: 683
